{"source": "patent US8314079B2", "about": "“Hyaluronic acid oligosaccharide fractions and drugs containing the same” (Seikagaku Corporation, priority 2000, dated 2012)", "key": {"[1]": {"test_system": "Balb/c mice", "test": "Concanavalin A hepatopathy model", "assay_type": "in vivo, mouse", "conditions": "for average of GPT / average of GOT: 24 hours after ConA 15 mg/kg; for average of GPT: negative control about 5600; for average of GOT: negative control about 6000; for visual inspection of the livers (degree of hepatopathy): compared with negative and positive control solution groups", "procedure": "The preparation, concentration, dose, volume to be administered etc. of the test solution are the same as those used in Experiment 1.\nAs a positive control solution, Stronger Neo-Minophagen C (Minophagen Pharmaceutical) was used at a dose of 5 mg/kg. This dose is the maximum clinical dose of the drug. Moreover, physiological saline was used as a negative control solution.\nBalb/c mice of 8-week old were divided into a “negative control solution” administered group (n=12), “HA4 2 mg/kg” administered group (n=12), “HA4 10 mg/kg” administered group (n=12), “HA4 50 mg/kg” administered group (n=12), “positive control solution” administered group (n=12) and “normal” group (n=8).\nConcanavalin A (ConA, Sigma) was injected via the caudal vein at a dose of 15 mg/kg. Then, each of the aforementioned solutions was administered via the caudal vein. Thereafter, the mice were bred for 24 hours.\nThe whole blood was collected from the abdominal aorta, and the GPT activity and GOT activity were measured by a clinical chemistry autoanalyzer (COBAS MIRA S, Nippon Roche). Further, the liver was extracted, and appearance of the liver was evaluated by visual inspection."}, "[2]": {"test_system": "SD male rats", "test": "Carbon tetrachloride hepatopathy model", "assay_type": "in vivo, rat", "procedure": "A test substance was dissolved in physiological saline to obtain a test solution for administration. The concentration was determined depending on the dose mentioned below so that the volume of the solution to be administered should become 5 mL/kg.\nMoreover, as a positive control solution, FAD (flavine adenine dinucleotide, Wakamoto Pharmaceutical), of which effect on the carbon tetrachloride hepatopathy model had been reported (Yakubutsu Ryouhou (Pharmacotherapy), vol. 9, Special edition, pp. 46-53), was used at a dose of 10 mg/kg. Further, physiological saline was used as a negative control solution.\nSD male rats of 5-week old were divided into a “negative control solution” administered group (n=8), “HA4 2 mg/kg” administered group (n=8), “HA4 10 mg/kg” administered group (n=8), “HA4 50 mg/kg” administered group (n=8), “positive control solution” administered group (n=8) and “normal” group (n=8).\nThe rats of the groups were starved from 16:00 of the day before the first administration day, orally administered with 100 mg/kg of carbon tetrachloride (CCl4) before 8:00 of the next day and then intraperitoneally administered with each of the aforementioned solutions at 8:00. Thereafter, the rats were bred with maintaining starvation, and administered with each of the aforementioned solutions in the same manner as the first administration at 16:00 and 24:00. The rats were fed after the administration at 24:00 and dissected at 8:00 on the next day.\nAfter the dissection, blood was collected, and GOT activity and leucocyte count were measured. The GOT activity was measured by using a clinical chemistry autoanalyzer (COBAS MIRA S, Nippon Roche), and the leucocyte count was measured by using an automated hematology analyzer (Sysmex K-2000, produced by Sysmex).\nIL-10 in peripheral blood was measured by using IL-10 Rat ELISA (produced by ENDOGEN). IL-8 was measured by using Panatest A Series Rat CINC-1 (IL-8) (Panapharm Laboratories). The symbol of ** in FIGS. 51 and 52 indicates presence of significant difference with p<0.01 (Williams multiple range test)."}, "[3]": {"test_system": "HSF1", "test": "Phosphorylation (activation) of HSF1 in heat-shocked K562 cells, band shift 66 kDa to 81 kDa by SDS-PAGE/Western blotting", "assay_type": "cell-based, human", "description": "It is known that HSF1 (heat shock factor 1) protein is a transcription factor of Hsp70 (J. Biol. Chem., 271, pp. 3355-3358, 1996). Moreover, the HSF1 protein can be activated by phosphorylation, and this phosphorylation can be detected based on band shift in SDS-polyacrylamide gel electrophoresis (SDS-PAGE) (apparent molecular weight shifts from about 66 kDa to about 81 kDa). By utilizing this fact, the HA oligosaccharides of various sizes were allowed to act on the K562 cells given with stress, and the aforementioned band shift was detected to investigate the degree of the phosphorylation (activation) of HSF1.\nHA4, ΔHA4, HA6, HA8, HA2-18 and HA 8-14 were each added to a medium containing the aforementioned cells at a concentration of 1, 10 or 100 ng/mL. Then, the cells were immediately transferred into an environment at 42° C. to be given with heat shock and incubated for 20 minutes. After the incubation, the cells were collected by centrifugation, and SDS-PAGE (gel concentration: 10%) was performed. Thereafter, Western blotting was performed by using anti-HSF1 monoclonal antibodies (produced by Stressgene) as primary antibodies and goat anti-mouse IgG monoclonal antibodies (produced by Jackson Lab) as secondary antibodies to detect the shift of a band of 66 kDa (HSF1 not phosphorylated) to a band of 81 kDa (phosphorylated HSF1).\nIn order to confirm the reproducibility of Experiment 1, the band shift was detected in the same manner as in Experiment 1 by using HA4, ΔHA4, HA8 and HA84 except that HA was added in a single kind of amount of 100 ng/mL, and the heat shock was given at 43° C. In FIG. 41, the first lane from the left indicates the result obtained with an extract of cells incubated at 37° C. (no addition of HA oligosaccharide), the second lane indicates the result obtained with an extract of cells subjected to 43° C. (no addition of HA oligosaccharide), and the first lane from the right indicates the result of detection of HSF1 (derived from bacteria) as a standard.\nIn order to investigate whether the action observed in Experiment 2 was specific to the saccharide chain basic structure of HA oligosaccharides, the following comparative experiment was performed by using chondroitin oligosaccharides. […] Therefore, it can be said that Ch is a substance extremely structurally analogous to HA, and the same shall also apply to the oligosaccharides thereof. • Saturated Ch tetrasaccharide (Ch4) • GlcAβ1-3GalNAcβ1-4GlcAβ1-3GalNAc • Saturated Ch hexasaccharide (Ch6) • GlcAβ1-3GalNAcβ1-4GlcAβ1-3GalNAcβ1-4GlcAβ1-3GalNAc • Saturated Ch octasaccharide (Ch8) • GlcAβ1-3GalNAcβ1-4GlcAβ1-3GalNAcβ1-4GlcAβ1-3GalNAcβ1-4GlcAβ1-3GalNAc\nThe same experiment as Experiment 2 was performed by using these oligosaccharides."}, "[4]": {"conditions": "HA4 2, 10, 50 mg/kg intraperitoneal, dose dependence"}, "[5]": {"conditions": "Experiment 2 (and comparative Experiment 3), 100 ng/mL, heat shock 43° C."}}, "data": [{"smiles": "CC(=O)N[C@H]1[C@H](O[C@H]2[C@H](O)[C@@H](O)[C@H](O[C@H]3[C@H](O)[C@@H](CO)OC(O)[C@@H]3NC(C)=O)O[C@@H]2C(=O)O)O[C@H](CO)[C@@H](O)[C@@H]1O[C@@H]1O[C@H](C(=O)O)[C@@H](O)[C@H](O)[C@H]1O.[Na].[Na]", "note": "(stereo partly drawn) [HA4, sodium β-D-glucopyranosyluronate-(1→3)-2-acetamido-2-deoxy-β-D-glucopyranosyl-(1→4)-(sodium β-D-glucopyranosyluronate)-(1→3)-2-acetamido-2-deoxy-D-glucopyranose]", "values": [{"measurement": "average of GPT", "setting": "[1]; 10 mg/kg via the caudal vein", "value": "about 2200 I.U./L"}, {"measurement": "average of GOT", "setting": "[1]; 10 mg/kg via the caudal vein", "value": "about 2000 I.U./L"}, {"measurement": "visual inspection of the livers (degree of hepatopathy)", "setting": "[1]; 10 mg/kg", "value": "lower degree of hepathopathy"}, {"measurement": "average of GPT", "setting": "[1]; 50 mg/kg via the caudal vein", "value": "about 1200 I.U./L"}, {"measurement": "average of GOT", "setting": "[1]; 50 mg/kg via the caudal vein", "value": "about 1000 I.U./L"}, {"measurement": "visual inspection of the livers (degree of hepatopathy)", "setting": "[1]; 50 mg/kg", "value": "lower degree of hepathopathy"}, {"measurement": "GOT activity", "setting": "[2]; HA4 50 mg/kg administered group, intraperitoneal, compared with negative control solution group, p<0.05", "value": "significant reduction"}, {"measurement": "blood IL-10 level", "setting": "[2]; HA4 50 mg/kg, compared with negative control solution group, p<0.01", "value": "significantly higher"}, {"measurement": "blood IL-8 level", "setting": "[2]; [4]", "value": "decreased in a manner dependent on the dose of HA4"}, {"measurement": "blood IL-10 level", "setting": "[2]; [4]", "value": "increased in a manner dependent on the dose of HA4"}, {"measurement": "peripheral leucocyte count", "setting": "[2]; HA4 groups compared with FAD 10 mg/kg (positive control)", "value": "decreased compared even with FAD"}, {"measurement": "peripheral leucocyte count", "setting": "[2]; all HA4 groups (2, 10, 50 mg/kg intraperitoneal), compared with negative control solution group", "value": "significant decrease"}, {"measurement": "shift of a band of 66 kDa (HSF1 not phosphorylated) to a band of 81 kDa (phosphorylated HSF1)", "setting": "[3]; Experiment 1, 1, 10 or 100 ng/mL, heat shock 42° C., 20 minutes", "value": "shift to the 81 kDa band was observed depending on the amount of the added HA oligosaccharide"}, {"measurement": "amount of HSF1 per se", "setting": "[3]; [5]", "value": "amounts of both HSF1 of 66 kDa and 81 kDa per se were also increased"}, {"measurement": "band shift of HSF1 (66 kDa to 81 kDa)", "setting": "[3]; [5]", "value": "band shift was observed"}]}]}
